Source: PubChem BioAssay (NCI)
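96-well plates; 48 h exposure; 5 concentrations. Endpoints by linear interpolation between flanking doses. Not reached: highest tested concentration assigned. GI50: concentration for 50% inhibition of growth. TGI marks complete inhibition of growth.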

Key:
Test in all cases: NCI-60 cell line screen, 48 h
HL-60(TB) leukemia = tested on: HL-60(TB) leukemia
SW-620 colon = tested on: SW-620 colon
OVCAR-4 ovarian = tested on: OVCAR-4 ovarian
KM12 colon = tested on: KM12 colon
MDA-MB-231 breast = tested on: MDA-MB-231 breast
MCF7 breast = tested on: MCF7 breast
RPMI-8226 leukemia = tested on: RPMI-8226 leukemia
LOX IMVI melanoma = tested on: LOX IMVI melanoma
NCI-H23 lung = tested on: NCI-H23 lung
NCI-H226 lung = tested on: NCI-H226 lung
SK-OV-3 ovarian = tested on: SK-OV-3 ovarian
OVCAR-3 ovarian = tested on: OVCAR-3 ovarian
SNB-19 CNS = tested on: SNB-19 CNS
SF-268 CNS = tested on: SF-268 CNS
HCT-116 colon = tested on: HCT-116 colon
BT-549 breast = tested on: BT-549 breast
COLO 205 colon = tested on: COLO 205 colon
TK-10 renal = tested on: TK-10 renal
UO-31 renal = tested on: UO-31 renal
HCC-2998 colon = tested on: HCC-2998 colon
MDA-MB-435 = tested on: MDA-MB-435
A498 renal = tested on: A498 renal
HCT-15 colon = tested on: HCT-15 colon
HOP-62 NSCLC = tested on: HOP-62 NSCLC
UACC-257 melanoma = tested on: UACC-257 melanoma
SK-MEL-2 melanoma = tested on: SK-MEL-2 melanoma
T-47D breast = tested on: T-47D breast
MALME-3M melanoma = tested on: MALME-3M melanoma
MOLT-4 leukemia = tested on: MOLT-4 leukemia
SF-539 CNS = tested on: SF-539 CNS
K-562 leukemia = tested on: K-562 leukemia
NCI-H522 lung = tested on: NCI-H522 lung
SN12C renal = tested on: SN12C renal
PC-3 prostate = tested on: PC-3 prostate
A549 NSCLC = tested on: A549 NSCLC
HS 578T breast = tested on: HS 578T breast
SK-MEL-5 melanoma = tested on: SK-MEL-5 melanoma
M14 melanoma = tested on: M14 melanoma
CAKI-1 renal = tested on: CAKI-1 renal
OVCAR-8 ovarian = tested on: OVCAR-8 ovarian
DU-145 prostate = tested on: DU-145 prostate
OVCAR-5 ovarian = tested on: OVCAR-5 ovarian
CCRF-CEM leukemia = tested on: CCRF-CEM leukemia
HOP-92 NSCLC = tested on: HOP-92 NSCLC
NCI/ADR-RES ovarian = tested on: NCI/ADR-RES ovarian
U251 CNS = tested on: U251 CNS
SNB-75 CNS = tested on: SNB-75 CNS
NCI-H460 lung = tested on: NCI-H460 lung
SF-295 CNS = tested on: SF-295 CNS
SK-MEL-28 melanoma = tested on: SK-MEL-28 melanoma
HT29 colon = tested on: HT29 colon
786-0 renal = tested on: 786-0 renal
IGROV1 ovarian = tested on: IGROV1 ovarian
ACHN renal = tested on: ACHN renal
UACC-62 melanoma = tested on: UACC-62 melanoma
SR leukemia = tested on: SR leukemia

`O=C(Nc1ccc(CN2CCOCC2)cc1)c1ccc(-c2cc(Cl)ccc2Cl)o1` gave a GI50 (HL-60(TB) leukemia) of 4.45 µM, a TGI (HL-60(TB) leukemia) of 20.9 µM and a GI50 (SW-620 colon) of 3.33 µM. It also gave a TGI (SW-620 colon) of 11.5 µM, a GI50 (OVCAR-4 ovarian) of 17.6 µM and a TGI (OVCAR-4 ovarian) of 67.1 µM. For the same compound, the GI50 (KM12 colon) was 4.41 µM, the TGI (KM12 colon) was 16.3 µM and the GI50 (MDA-MB-231 breast) was 10.7 µM. The TGI (MDA-MB-231 breast) was 29.5 µM, the GI50 (MCF7 breast) was 9.98 µM and the TGI (MCF7 breast) was 26.3 µM. It also gave a GI50 (RPMI-8226 leukemia) of 3.49 µM, a TGI (RPMI-8226 leukemia) of 17.7 µM and a GI50 (LOX IMVI melanoma) of 2.65 µM. For the same compound, the TGI (LOX IMVI melanoma) was 13 µM, the GI50 (NCI-H23 lung) was 12.8 µM and the TGI (NCI-H23 lung) was 31.8 µM. The GI50 (NCI-H226 lung) was 12.2 µM, the TGI (NCI-H226 lung) was 33.6 µM and the GI50 (SK-OV-3 ovarian) was 15.1 µM. It also gave a TGI (SK-OV-3 ovarian) of 30.6 µM, a GI50 (OVCAR-3 ovarian) of 15.3 µM and a TGI (OVCAR-3 ovarian) of 39.2 µM. The GI50 (SNB-19 CNS) was 16.2 µM, the TGI (SNB-19 CNS) was 35.6 µM and the GI50 (SF-268 CNS) was 16.5 µM. The TGI (SF-268 CNS) was 49.1 µM, the GI50 (HCT-116 colon) was 5.92 µM and the TGI (HCT-116 colon) was 21.4 µM. For the same compound, the GI50 (BT-549 breast) was 7.79 µM, the TGI (BT-549 breast) was 43.1 µM and the GI50 (COLO 205 colon) was 2.24 µM. The TGI (COLO 205 colon) was 4.19 µM, the GI50 (TK-10 renal) was 13.1 µM and the TGI (TK-10 renal) was 29.1 µM. It also gave a GI50 (UO-31 renal) of 18.3 µM, a TGI (UO-31 renal) of 78.1 µM and a GI50 (HCC-2998 colon) of 9.29 µM. The TGI (HCC-2998 colon) was 23 µM, the GI50 (MDA-MB-435) was 11.6 µM and the TGI (MDA-MB-435) was 29.2 µM. It also gave a GI50 (A498 renal) of 10 µM, a TGI (A498 renal) of 22.1 µM and a GI50 (HCT-15 colon) of 3.29 µM. For the same compound, the TGI (HCT-15 colon) was 34.4 µM, the GI50 (HOP-62 NSCLC) was 15.5 µM and the TGI (HOP-62 NSCLC) was 38.5 µM. For the same compound, the GI50 (UACC-257 melanoma) was 11.2 µM, the TGI (UACC-257 melanoma) was 24.4 µM and the GI50 (SK-MEL-2 melanoma) was 14.7 µM. It also gave a TGI (SK-MEL-2 melanoma) of 30.5 µM, a GI50 (T-47D breast) of 5.34 µM and a TGI (T-47D breast) of 22.4 µM. It also gave a GI50 (MALME-3M melanoma) of 8.74 µM, a TGI (MALME-3M melanoma) of 29.2 µM and a GI50 (MOLT-4 leukemia) of 4.34 µM. It also gave a TGI (MOLT-4 leukemia) of 20.5 µM, a GI50 (SF-539 CNS) of 8.69 µM and a TGI (SF-539 CNS) of 24.9 µM. It also gave a GI50 (K-562 leukemia) of 2 µM, a TGI (K-562 leukemia) of 6.09 µM and a GI50 (NCI-H522 lung) of 10.2 µM. The TGI (NCI-H522 lung) was 26.6 µM, the GI50 (SN12C renal) was 16.4 µM and the TGI (SN12C renal) was 52.6 µM. For the same compound, the GI50 (PC-3 prostate) was 8.63 µM, the TGI (PC-3 prostate) was 36.4 µM and the GI50 (A549 NSCLC) was 7.48 µM. It also gave a TGI (A549 NSCLC) of 32.4 µM, a GI50 (HS 578T breast) of 12.5 µM and a TGI (HS 578T breast) of 34.4 µM. The GI50 (SK-MEL-5 melanoma) was 4.45 µM, the TGI (SK-MEL-5 melanoma) was 16.7 µM and the GI50 (M14 melanoma) was 11.1 µM. It also gave a TGI (M14 melanoma) of 32.4 µM, a GI50 (CAKI-1 renal) of 13 µM and a TGI (CAKI-1 renal) of 56.4 µM. For the same compound, the GI50 (OVCAR-8 ovarian) was 11.4 µM, the TGI (OVCAR-8 ovarian) was 51.3 µM and the GI50 (DU-145 prostate) was 18 µM. It also gave a TGI (DU-145 prostate) of 63.3 µM, a GI50 (OVCAR-5 ovarian) of 15.7 µM and a TGI (OVCAR-5 ovarian) of 61.1 µM. The GI50 (CCRF-CEM leukemia) was 6.02 µM, the TGI (CCRF-CEM leukemia) was 49.1 µM and the GI50 (HOP-92 NSCLC) was 10.2 µM. For the same compound, the TGI (HOP-92 NSCLC) was 33.7 µM, the GI50 (NCI/ADR-RES ovarian) was 17.4 µM and the TGI (NCI/ADR-RES ovarian) was over 100 µM. It also gave a GI50 (U251 CNS) of 4.62 µM, a TGI (U251 CNS) of 19.6 µM and a GI50 (SNB-75 CNS) of 16 µM. It also gave a TGI (SNB-75 CNS) of 36 µM, a GI50 (NCI-H460 lung) of 3.54 µM and a TGI (NCI-H460 lung) of 12.4 µM. The GI50 (SF-295 CNS) was 5.38 µM, the TGI (SF-295 CNS) was 28.5 µM and the GI50 (SK-MEL-28 melanoma) was 11.9 µM. For the same compound, the TGI (SK-MEL-28 melanoma) was 26.6 µM, the GI50 (HT29 colon) was 2.96 µM and the TGI (HT29 colon) was 12 µM. It also gave a GI50 (786-0 renal) of 11.8 µM, a TGI (786-0 renal) of 26.1 µM and a GI50 (IGROV1 ovarian) of 23.5 µM. For the same compound, the TGI (IGROV1 ovarian) was 61.6 µM, the GI50 (ACHN renal) was 18.4 µM and the TGI (ACHN renal) was 97.9 µM. For the same compound, the GI50 (UACC-62 melanoma) was 2.39 µM, the TGI (UACC-62 melanoma) was 6.88 µM and the GI50 (SR leukemia) was 2.35 µM. It also gave a TGI (SR leukemia) of 8.99 µM.
